{"source": "patent US20100104624A1", "about": "“COMBINATION THERAPY USING PHOSPHODIESTERASE INHIBITORS” (priority 2008, published 2010)", "key": {"patient [1]": {"system": "patient", "settings": "for headache side-effect of Viagra: Viagra alone; for headache side-effect of PDE-5 inhibitor: Example 4: patient, erectile dysfunction secondary to medications, hemicrania continua", "procedure": "A patient with a history of migraines had difficulty sustaining an erection for long periods of time.\nA patient presented with erectile dysfunction secondary to medications and hemicrania continua (a largely refractory condition consisting of a constant one-sided headache). […] They were then prescribed cafergot, a combination of ergotamine and caffeine, at a dose of 1 mg and instructed to take this with the Clalis.\nA patient experienced intermittent erectile dysfunction due to stress."}, "patient [2]": {"system": "patient", "assay": "Patient case reports: alleviation of PDE-5 inhibitor headache by a co-administered agent", "format": "in vivo"}, "[3]": {"settings": "Example 3: patient with history of migraines"}}, "note": "Counter-ions that a name gives are not always drawn. Like-named read-outs stand apart in the source and are kept apart here."}
{"smiles": "CCCc1nn(C)c2c(=O)[nH]c(-c3cc(S(=O)(=O)N4CCN(C)CC4)ccc3OCC)nc12", "note": "[Viagra, sildenafil citrate]", "values": [{"measurement": "headache side-effect of Viagra", "setting": "patient [1]; Example 1: patient, erectile dysfunction secondary to low testosterone", "result": "inability to use Viagra because of headaches"}, {"measurement": "headache side-effect of Viagra", "setting": "patient [1]; Example 2: patient without erectile dysfunction", "result": "bothered by headaches"}, {"measurement": "headache side-effect of Viagra", "setting": "patient [1]; [3]", "result": "intolerable headaches"}, {"measurement": "headache side-effect of PDE-5 inhibitor", "setting": "patient [1]", "result": "exacerbated their headaches"}, {"measurement": "headache side-effect of Viagra", "setting": "patient [1]; Example 5: patient, intermittent erectile dysfunction due to stress", "result": "could not tolerate the headache"}, {"measurement": "headache side-effect of Viagra", "setting": "patient [1]; Example 6: patient with psychologic erectile dysfunction", "result": "experiencing headaches"}, {"measurement": "headache side-effect of Viagra", "setting": "patient [1]; Example 7: patient", "result": "suffered from headaches"}]}
{"smiles": "CC(=O)Nc1ccc(O)cc1", "note": "[acetaminophen]", "values": [{"measurement": "effect on Viagra headache", "setting": "patient [2]; [3]", "result": "had no effect on the headache"}]}
{"smiles": "CC(C)(C)NCC(O)c1ccc(O)c(CO)c1", "note": "(centres unmarked) [albuterol]", "values": [{"measurement": "relief of Viagra headache", "setting": "patient [2]; Example 7: two puffs of albuterol inhaler after developing a headache from the Viagra", "result": "headache was alleviated"}]}
{"smiles": "CNS(=O)(=O)Cc1ccc2[nH]cc(CCN(C)C)c2c1", "note": "[Imitrex, sumatriptan succinate]", "values": [{"measurement": "relief of Viagra headache", "setting": "patient [2]; Example 5: Imitrex nasal spray at a dose of 25 mg", "result": "alleviated the headache to the point where they could enjoy the sex"}]}
{"smiles": "CN1CC(=O)N2[C@H](c3ccc4c(c3)OCO4)c3[nH]c4ccccc4c3C[C@@H]2C1=O", "note": "[Clalis, tadalafil]", "values": [{"measurement": "headache side-effect of PDE-5 inhibitor", "setting": "patient [1]", "result": "exacerbated their headaches"}]}
{"smiles": "CN(C)CCc1c[nH]c2ccc(Cn3cncn3)cc12", "note": "[rizatriptan]", "values": [{"measurement": "effect on Viagra headache", "setting": "patient [2]; Example 3: 5 mg tablet of rizatriptan with the Viagra", "result": "made the headache tolerable"}]}
{"smiles": "CC(C)Cc1ccc(C(C)C(=O)O)cc1", "note": "(centres unmarked) [Ibuprofen]", "values": [{"measurement": "effect on Viagra headache", "setting": "patient [2]; [3]", "result": "had no effect on the headache"}]}
{"smiles": "Cn1c(=O)c2c(ncn2C)n(C)c1=O", "note": "[caffeine]", "values": [{"measurement": "relief of Viagra headache", "setting": "patient [2]; Example 1: caffeine administered prior to taking the Viagra", "result": "did not help"}, {"measurement": "relief of Viagra headache", "setting": "patient [2]; Example 5: patient", "result": "did not relieve the headache"}]}
{"smiles": "CN[C@@H](C)[C@@H](O)c1ccccc1", "note": "[Sudafed, pseudoephedrine hydrochloride]", "values": [{"measurement": "relief of Viagra headache", "setting": "patient [2]; Example 1: one Sudafed tablet", "result": "only minimal relief"}, {"measurement": "relief of Viagra headache", "setting": "patient [2]; Example 1: two Sudafed tablets concomitantly with the Viagra", "result": "headache was still present but had abated enough to where they could enjoy the experience"}, {"measurement": "prevention of Viagra headache", "setting": "patient [2]; Example 2: one Sudafed tablet with the Viagra", "result": "did not develop a headache"}, {"measurement": "relief of Viagra headache", "setting": "patient [2]; Example 5: patient", "result": "did not relieve the headache"}]}
{"smiles": "N[C@@H](Cc1c[nH]c2ccccc12)C(=O)O", "note": "[L-tryptophan]", "values": [{"measurement": "prevention of Viagra headache", "setting": "patient [2]; Example 6: L-tryptophan supplements the night before sexual intercourse", "result": "headache-free sex"}]}
